Here are results for eight compounds from US20060079497A1, “Lavendamycin analogues and methods of synthesizing and using lavendamycin analogues” (Ball State University, priority 2004, published 2006).

A word on the IC50: it is the midpoint of a concentration-inhibition curve. Low values mean inhibition by little substance, high ones a need for much substance. What is called CC50 is the concentration giving 50% cytotoxicity. The term melting point denotes the temperature of the solid-liquid transition.

The target in series [1] is T1, HIV reverse transcriptase (HIV-RT) (Human immunodeficiency virus type 1 group M subtype B, UniProt P04585).
T1 construct: 1 unit/mL of HIV-RT (Worthington Biochemical Corp., Freehold, N.J.); purchased Worthington Biochemical Corp., Freehold, N.J
The series can be described thus: HIV-RT assay (3H-TTP incorporation, modified assay of Okada et al.). Type of series: biochemical. The note with it: Mean IC50 ± SEM (no. of expts), 50% inhibition of HIV RT activity toward 1 unit of enzyme. As to the method:
Briefly, the analogues were initially dissolved in either DMSO or HEPES buffer (pH 7.2) and then diluted to the appropriate concentration before addition to the assay mixtures. […] Several control wells without any inhibitors were also included on each microtiter plate. The reactions were allowed to proceed for 1 h at 37° C. […] A more detailed description of reaction conditions is provided below in the Examples. The concentration of drug which inhibited 50% of the enzyme activity (IC50) was determined by using the computer software program Calcusyn, which plots the dose-effect curves from the inhibition data and calculates the IC50 for each drug.
The assay procedure described below is adapted from Okada et al. (Okada, H.; Mukai, H.; Inouye, Y; Nakamura, S. “Biological Properties of Streptonigrin Derivatives II. Inhibition of Reverse Transcriptase Activity,” J. Antibiot., 1986, 39, 306-308). The lavendamycin analogs were initially dissolved in DMSO at a concentration of 1 mg/mL. Occasionally, mild sonication and heat were used to dissolve the less soluble compounds. The dissolved analogs were then serially diluted in distilled water to achieve concentrations in the final reaction mixture ranging from 0.5-15 μM. In addition to the lavendamycin analogs, the final reaction mixture contained 100 mM Tris-HCl (pH 8.0), 5 mM MgCl2, 5 mM dithiothreitol, 60 mM NaCl, 0.2 mM [^3H] thymidine triphosphate(5 μCi well), 4 μg/mL poly (rA)-oligo(dT)12-18 (Amersham Pharmacia Biotech, Piscataway, N.J.) and 1 unit/mL of HIV-RT (Worthington Biochemical Corp., Freehold, N.J.) in a total volume of 300 μL. For each assay, the reaction mixture containing 8× buffer, double distilled H2O, ^3HTTP, template-primer and HIV-RT was pre-mixed in a 15-mL sterile tube in quantities required for the particular experiment. After adding the enzyme, the reaction mixture was mixed and kept on ice. The inhibitors, either AZT(Moravek Biochemicals, Brea, Calif.), analogs or both were added to appropriate wells in a 24 well microtiter plate and ddH2O was added to each well to bring the volume of all test wells to 100 μL. Two hundred μL of the chilled reaction mixture was then added to each of the test wells, mixed, and incubated for 1 hr at 37° C. Several control wells with no inhibitors were included on each test plate. After stopping the reactions with 25 μL 0.1 M EDTA, triplicate samples of 15 μL from each test well were spotted on DE81 ion exchange filter paper squares (Whatman Paper, Maidstone, England). After drying, each filter was washed for 10 minutes three times with 5% TCA-NHPO4, three times with 0.6M NaCl-[…] Na Citrate, one time with ddH2O and one time with 95% ethanol. After drying the individual filter papers were added to 5 mL Scintiverse E (Fisher Scientific, Chicago, Ill.) scintillation fluid and the amount of 3H-TTP uptake measured as counts per minute on a Beckman liquid scintillation counter. […] The results were then analyzed using Calcusyn, a windows software program for dose effect analysis designed by T. -C. Chou and M. P. Hayball and published by Biosoft® (UK).

A short description of series [2]: Cytotoxicity assay (MTT), normal murine spleen cells stimulated with concanavalin A. Type of series: cell-based. Conditions: normal murine spleen cells stimulated with concanavalin A; normal mouse spleen stimulated with concanavalin A inhibited by 50%; read-out: Mean CC50 (Normal Mouse Spleen) ± SEM (no. of expts). As to the method:
(§1) Normal murine spleen cells were washed in HBSS, cultured at 2.5×10^6 or 5×10^6 cells per mL in RPMI 1640 (with Hepes) complete medium with 2 mM-L-glutamine, 1 mM sodium pyruvate, 0.05 mM β-mercaptoethanol, penicillin, streptomycin, and amphotericin B with 10% fetal calf serum and Concanavalin A (ConA) at 2.5 μg/mL in a 96-well microtiter plate. A range of diluted analogs were added to triplicate culture wells and the cells were incubated at 37° C. in 5% CO2. Wells containing cells, media and ConA were used as controls. Forty-eight hours post incubation, 20 μL of the vital dye MTT (3-[4,5-Dimethylthiazol-2-yl]-2,5-diphenyltetrazolium bromide; thiazolyl blue) at 5 mg/mL was added to each well and the cultures re-incubated for 4-6 hours. Following centrifugation, the supernatants were decanted and the stained cells were resuspended in 100 μL of 0.4% HCl acidified isopropanol. The optical densities of each well were read at 600 nm using a Cambridge Technologies series 700 microplate reader. The human lymphocytic cell lines CCRF-CEM (ATCC: HTB 176) and H-9 (ATCC: CCL 119) were subcultured from recently cultured cells grown in complete RPMI 1640 medium as described above but without the β-mercaptoethanol and ConA at 6.25×10^5 and 2×10^6 per mL in a 96 well culture plate. These cell numbers represented log phase and early stationary phase of the freshly cultured cells. As these cell lines rapidly reproduce without mitogenic stimulation, Con A was not used. A range of analogues or media alone was added in triplicate to the cultures and the cultures incubated, pulsed with MTT, harvested and their growth estimated as described above for the murine cultures. The CC50 or the concentration of drug which inhibited cell growth as estimated by MTT formazan production to 50% of that of untreated control cells was determined by linear interpolation for each lavendamycin analog.

The nature of series [3]: Cytotoxicity assay (MTT), human lymphocytic cell lines, pooled data. In kind it is cell-based. The note with it: human lymphocytic cell lines CCRF-CEM and H-9, pooled data, H-9 and CEM inhibited by 50%, read-out: Mean CC50 (Human Cell Lines) ± SEM (no. of expts). As to the method:
as §1

A further series deals with tumor. In words: Antitumor activity (applicant's earlier studies).
The nature of series [4]: Animal toxicity studies in mice (National Cancer Institute and other studies). The note with it: mouse, in vivo.
Series [5] deals with mice. Conditions: cited from earlier work.
Series [6] deals with mice. In words: Animal toxicity studies in mice (National Cancer Institute and other studies). The note with it: SCID mice, 300 mg/kg/day for 10 days.

For the compound `NC(=O)c1cc2c([nH]c3ccccc32)c(-c2ccc3c(n2)C(=O)C(N)=CC3=O)n1` [Compound 21, Demethyllavendamycin Amide], the IC50 in series [1] is 20.5 ± 5 µM. Also, the CC50 at 48 h in series [2] was determined as 15 ± 2 µM; in series [3], 17 ± 3 µM. Moreover, the antitumor activity entry in the series with tumor is reported as “highly active antitumor agents”. Further, in series [4], the MTD was found to be 400 mg/kg.

Regarding `COc1cccc2c1C(=O)c1c(O)c3c(c(O)c1C2=O)C[C@@](O)(C(=O)CO)C[C@@H]3O[C@H]1C[C@H](N)[C@H](O)[C@H](C)O1` [adriamycin], in the series on mice [5] (once a week for three weeks), the maximally tolerated dose entry is “below 10 mg/kg”.

With `COC(=O)c1nc(-c2ccc3c(n2)C(=O)C(N)=C(OC)C3=O)c2[nH]c3ccccc3c2c1C`, the melting point is over 280 °C.

`Cc1c(C(=O)O)nc(-c2ccc3c(n2)C(=O)C(N)=CC3=O)c2[nH]c3ccccc3c12` [lavendamycin]: in the series on mice [5] (reported), the maximum tolerated dose is on record as 12.8 mg/kg.

As to `CCCCCCCCOC(=O)c1cc2c([nH]c3ccccc32)c(-c2ccc3c(n2)C(=O)C(NC(C)=O)=CC3=O)n1` [Compound 15, 7-N-Acetyldemethyllavendamycin n-Octyl Ester], in the series with mice [6], the tolerability entry was “no animal death or loss of weight”.

As for `COC1=C(N)C(=O)c2nc(-c3nc(C(=O)O)c(C)c(-c4ccc(OC)c(OC)c4O)c3N)ccc2C1=O` [streptonigrin], the lethal dose in the series on mice [5] is given as at least 0.4 mg/kg.

For `COC(=O)c1cc2c([nH]c3ccccc32)c(-c2ccc3c(n2)C(=O)C(N)=C(OC)C3=O)n1`, the melting point is over 280 °C.

Take `COC(=O)c1nc(-c2ccc3c(n2)C(=O)C(N)=CC3=O)c2[nH]c3ccccc3c2c1C` [Compound 2b, lavendamycin methyl ester, reference compound]: in the series with tumor, the antitumor activity result is on record as “highly active antitumor agents”.
